Data from PubChem BioAssay AID192 (DTP/NCI, 2004).
Values joined by “and” are separate entries in the source; they are usually repeats but may differ in a detail not shown here. Equal entries are not always repeated. Toxic doses and inconclusive results are not listed. Peptide text beside a SMILES is read from it. * marks the point of attachment. CH2Cl = ClC*

System: BDF1 mice, B16 melanoma ip, median survival T/C
Assay: NCI In Vivo Anticancer Drug Screen. Data for tumor model B16 Melanoma (intraperitoneal) in B6D2F1 (BDF1) mice
Conditions: endpoint: median survival time, higher = longer survival
Method in brief: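 Values are ratios of treated (T) to vehicle-control (C) measurements of survival or tumor size in tumor-bearing mice.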

[1] = dose: 2.0 mg/kg/injection, schedule: Q01DX009 (ip), vehicle: saline
[2] = dose: 4.0 mg/kg/injection, schedule: Q01DX009 (ip), vehicle: saline
[3] = dose: 12.5 mg/kg/injection, schedule: Q01DX009 (ip), vehicle: saline with Tween-80
[4] = dose: 25.0 mg/kg/injection, schedule: Q01DX009 (ip), vehicle: Klucel (hydroxypropylcellulose) (HPC)
[5] = dose: 25.0 mg/kg/injection, schedule: Q01DX009 (ip), vehicle: saline with Tween-80
[6] = dose: 50.0 mg/kg/injection, schedule: Q01DX009 (ip), vehicle: Klucel (hydroxypropylcellulose) (HPC)
[7] = dose: 200.0 mg/kg/injection, schedule: Q01DX009 (ip), vehicle: Klucel (hydroxypropylcellulose) (HPC)
[8] = dose: 12.5 mg/kg/injection, schedule: Q01DX009 (ip), vehicle: saline
[9] = dose: 25.0 mg/kg/injection, schedule: Q01DX009 (ip), vehicle: saline
[10] = dose: 50.0 mg/kg/injection, schedule: Q01DX009 (ip), vehicle: saline
[11] = dose: 100.0 mg/kg/injection, schedule: Q01DX009 (ip), vehicle: Klucel (hydroxypropylcellulose) (HPC)
[12] = dose: 400.0 mg/kg/injection, schedule: Q01DX009 (ip), vehicle: Klucel (hydroxypropylcellulose) (HPC)
[13] = dose: 6.25 mg/kg/injection, schedule: Q01DX009 (ip), vehicle: other
[14] = dose: 12.5 mg/kg/injection, schedule: Q01DX009 (ip), vehicle: Klucel (hydroxypropylcellulose) (HPC)
[15] = dose: 12.5 mg/kg/injection, schedule: Q01DX009 (ip), vehicle: other

SMILES: OCCN1CCN(CC/C=C2\c3ccccc3COc3ccc(Cl)cc32)CC1
- T/C [1]: 105 % of control
- T/C [2]: 113 % of control

SMILES: O=CC1CO1 (stereo not drawn)
- T/C (dose: 12.5 mg/kg/injection, schedule: Q01DX009 (ip), vehicle: saline sonified): 90 % of control
- T/C (dose: 25.0 mg/kg/injection, schedule: Q01DX009 (ip), vehicle: saline sonified): 90 % of control
- T/C (dose: 50.0 mg/kg/injection, schedule: Q01DX009 (ip), vehicle: saline sonified): 97 % of control

SMILES: FC(F)(F)S.[Hg]
- T/C (dose: 1.25 mg/kg/injection, schedule: Q01DX009 (ip), vehicle: saline): 104 % of control
- T/C (dose: 2.5 mg/kg/injection, schedule: Q01DX009 (ip), vehicle: saline): 100 % of control
- T/C (dose: 5.0 mg/kg/injection, schedule: Q01DX009 (ip), vehicle: saline): 102 % of control

SMILES: CC(=O)NC(CC(C)C)C(=O)NC(Cc1ccccc1)C(=O)CCl (stereo not drawn) (Ac-Leu-Phe-CH2Cl; configuration not given here)
- T/C (dose: 1.56 mg/kg/injection, schedule: Q01DX009 (ip), vehicle: Klucel (hydroxypropylcellulose) (HPC)): 100 % of control
- T/C (dose: 3.12 mg/kg/injection, schedule: Q01DX009 (ip), vehicle: Klucel (hydroxypropylcellulose) (HPC)): 100 % of control
- T/C (dose: 6.25 mg/kg/injection, schedule: Q01DX009 (ip), vehicle: Klucel (hydroxypropylcellulose) (HPC)): 96 % of control and 97 % of control

SMILES: O=C(Nc1ccc(C(=O)O)cc1)Oc1ccc(N(CCCl)CCCl)cc1
- T/C (dose: 3.13 mg/kg/injection, schedule: Q04DX003 (ip), vehicle: saline with Tween-80): 109 % of control
- T/C (dose: 6.25 mg/kg/injection, schedule: Q04DX003 (ip), vehicle: saline with Tween-80): 109 % of control
- T/C [3]: 165 % of control
- T/C (dose: 12.5 mg/kg/injection, schedule: Q04DX003 (ip), vehicle: saline with Tween-80): 123 % of control
- T/C [4]: 154 % of control
- T/C [5]: 110 % of control
- T/C (dose: 25.0 mg/kg/injection, schedule: Q04DX003 (ip), vehicle: saline with Tween-80): 151 % of control
- T/C (dose: 50.0 mg/kg/injection, schedule: Q04DX003 (ip), vehicle: saline with Tween-80): 164 % of control
- T/C (dose: 100.0 mg/kg/injection, schedule: Q04DX003 (ip), vehicle: saline with Tween-80): 205 % of control

SMILES: C/C(=N/N=C(N)N)c1ccc(NC(=O)Nc2ccc(/C(C)=N/N=C(N)N)cc2)cc1
- T/C [4]: 99 % of control
- T/C [6]: 121 % of control
- T/C [7]: 120 % of control

SMILES: CCC(=O)c1ccc(NC(C)=O)cc1
- T/C (dose: 100.0 mg/kg/injection, schedule: Q04DX003 (ip), vehicle: Klucel (hydroxypropylcellulose) (HPC)): 102 % of control
- T/C (dose: 200.0 mg/kg/injection, schedule: Q04DX003 (ip), vehicle: Klucel (hydroxypropylcellulose) (HPC)): 96 % of control
- T/C (dose: 400.0 mg/kg/injection, schedule: Q04DX003 (ip), vehicle: Klucel (hydroxypropylcellulose) (HPC)): 98 % of control

SMILES: O=[N+]([O-])c1ccc2scc3c4ccccc4nc-3c2c1
- T/C (dose: 6.25 mg/kg/injection, schedule: Q01DX009 (ip), vehicle: saline): 90 % of control
- T/C [8]: 99 % of control

SMILES: CS(=O)(=O)OCCN(CCOS(C)(=O)=O)c1ccc(N=O)cc1
- T/C (dose: 0.1 mg/kg/injection, schedule: Q01DX009 (ip), vehicle: saline): 150 % of control
- T/C (dose: 0.2 mg/kg/injection, schedule: Q01DX009 (ip), vehicle: saline): 184 % of control and 204 % of control
- T/C (dose: 0.3 mg/kg/injection, schedule: Q01DX009 (ip), vehicle: saline): 175 % of control

SMILES: CN(/N=N/c1nc[nH]c1C(N)=O)C1CCCCC1
- T/C (dose: 50.0 mg/kg/injection, schedule: Q01DX009 (ip), vehicle: carboxymethylcellulose (CMC)): 123 % of control

SMILES: CC(N)Cc1ccc(O)cc1 (stereo not drawn)
- T/C [8]: 102 % of control
- T/C [9]: 110 % of control
- T/C [10]: 100 % of control
- T/C (dose: 100.0 mg/kg/injection, schedule: Q01DX009 (ip), vehicle: saline): 105 % of control
- T/C (dose: 200.0 mg/kg/injection, schedule: Q01DX009 (ip), vehicle: saline): 100 % of control

SMILES: Cc1cc(O)c(N=Nc2ccc(C(=O)O)cc2)cc1C
- T/C (dose: 12.5 mg/kg/injection, schedule: Q01DX009 (ip), vehicle: suspension in saline): 109 % of control
- T/C (dose: 25.0 mg/kg/injection, schedule: Q01DX009 (ip), vehicle: suspension in saline): 106 % of control
- T/C (dose: 50.0 mg/kg/injection, schedule: Q01DX009 (ip), vehicle: suspension in saline): 109 % of control
- T/C (dose: 100.0 mg/kg/injection, schedule: Q01DX009 (ip), vehicle: suspension in saline): 90 % of control
- T/C (dose: 200.0 mg/kg/injection, schedule: Q01DX009 (ip), vehicle: suspension in saline): 87 % of control

SMILES: NC(=O)c1nn(C2OC(CO)C(O)C2O)c2ncnc(N)c12 (stereo not drawn)
- T/C (dose: 1.25 mg/kg/injection, schedule: Q01DX009 (ip), vehicle: Klucel (hydroxypropylcellulose) (HPC)): 96 % of control
- T/C (dose: 2.5 mg/kg/injection, schedule: Q01DX009 (ip), vehicle: Klucel (hydroxypropylcellulose) (HPC)): 104 % of control
- T/C (dose: 5.0 mg/kg/injection, schedule: Q01DX009 (ip), vehicle: Klucel (hydroxypropylcellulose) (HPC)): 107 % of control
- T/C (dose: 10.0 mg/kg/injection, schedule: Q01DX009 (ip), vehicle: Klucel (hydroxypropylcellulose) (HPC)): 118 % of control
- T/C [4]: 103 % of control

SMILES: Cc1ccc(Cl)cc1NC(=O)c1ccc(Cl)cc1
- T/C [11]: 94 % of control
- T/C [7]: 101 % of control
- T/C [12]: 116 % of control

SMILES: C=C1C(=O)OC2C1CC1OC2C(C)CCC/C(C)=C\CCC1(C)O (stereo not drawn)
- T/C [3]: 97 % of control
- T/C [5]: 101 % of control
- T/C (dose: 50.0 mg/kg/injection, schedule: Q01DX009 (ip), vehicle: saline with Tween-80): 100 % of control
- T/C (dose: 100.0 mg/kg/injection, schedule: Q01DX009 (ip), vehicle: saline with Tween-80): 104 % of control

SMILES: O=C(NNCc1ccccc1)C(O)C(O)C(O)CO (stereo not drawn)
- T/C [4]: 95 % of control
- T/C [6]: 95 % of control
- T/C [11]: 92 % of control
- T/C [7]: 100 % of control
- T/C [12]: 95 % of control

SMILES: CC(=N\O)/C(C)=N/O.CC(=N\O)/C(C)=N/O.[Fe].c1c[nH]cn1.c1c[nH]cn1
- T/C [11]: 100 % of control
- T/C [7]: 100 % of control

SMILES: Nc1cccs1
- T/C [8]: 108 % of control
- T/C [9]: 99 % of control
- T/C [10]: 94 % of control

SMILES: Cc1ccc(S(=O)(=O)N/N=C/c2ccccc2Cl)cc1
- T/C (dose: 1.56 mg/kg/injection, schedule: Q01DX009 (ip), vehicle: other): 98 % of control
- T/C (dose: 3.13 mg/kg/injection, schedule: Q01DX009 (ip), vehicle: other): 99 % of control
- T/C [13]: 96 % of control
- T/C [14]: 91 % of control
- T/C [15]: 90 % of control
- T/C [6]: 89 % of control
- T/C [11]: 86 % of control

SMILES: CCC(C)C(N)C(=O)NC(CC(N)=O)C(=O)NC(CC(C)C)C(=O)NC(CCCCN)C(=O)NC(C)C(=O)NC(CC(C)C)C(=O)NC(C)C(=O)NC(C)C(=O)NC(CC(C)C)C(=O)NC(C)C(=O)NC(CCCCN)C(=O)NC(CCCCN)C(=O)NC(C(=O)NC(CC(C)C)C(N)=O)C(C)CC (stereo not drawn)
- T/C (dose: 1.0 mg/kg/injection, schedule: Q01DX009 (ip), vehicle: Klucel (hydroxypropylcellulose) (HPC)): 97 % of control
- T/C (dose: 2.0 mg/kg/injection, schedule: Q01DX009 (ip), vehicle: Klucel (hydroxypropylcellulose) (HPC)): 97 % of control
- T/C (dose: 4.0 mg/kg/injection, schedule: Q01DX009 (ip), vehicle: Klucel (hydroxypropylcellulose) (HPC)): 91 % of control

SMILES: C=CCCCC[P+](c1ccccc1)(c1ccccc1)c1ccccc1
- T/C (dose: 1.5 mg/kg/injection, schedule: Q01DX009 (ip), vehicle: saline): 102 % of control
- T/C (dose: 3.0 mg/kg/injection, schedule: Q01DX009 (ip), vehicle: saline): 92 % of control

SMILES: CCCCCCCCCCCCCCCCCCCCCC(=O)Nc1ccn(C2OC(CO)C(O)C2O)c(=O)n1 (stereo not drawn)
- T/C (dose: 6.25 mg/kg/injection, schedule: Q01DX009 (ip), vehicle: saline with Tween-80): 102 % of control
- T/C [3]: 102 % of control
- T/C [5]: 119 % of control
- T/C (dose: 200.0 mg/kg/injection, schedule: Q01DX009 (ip), vehicle: saline with Tween-80): 163 % of control

SMILES: COc1cc(C=Nc2ccc(-c3nc(Cc4ccccc4)sc3C)cc2)ccc1N(CCCl)CCCl
- T/C [14]: 175 % of control and 186 % of control
- T/C [4]: 191 % of control

SMILES: CCN(CC)CC#N
- T/C (dose: 1.0 mg/kg/injection, schedule: Q01DX009 (ip), vehicle: saline): 94 % of control
- T/C [1]: 105 % of control
- T/C [2]: 104 % of control

SMILES: C=C1C(=O)OC2C1C(OC(=O)/C(C)=C/COC(C)=O)CC1(CO1)C1C(O)C=C(C)C21 (stereo not drawn)
- T/C [13]: 103 % of control
- T/C [15]: 100 % of control
- T/C (dose: 25.0 mg/kg/injection, schedule: Q01DX009 (ip), vehicle: other): 104 % of control
